Where two headings read alike, the source gives them in different places.
Legend:
[1] = system: Key Broadleaf Weed and Crop Species; assay: Post-emergent Test II herbicidal activity (Table 15); format: in vivo; details: post-emergence, 336 h, 14 d; for pest or weed control at 35 g/ha: 35 g ai/ha; for pest or weed control at 70 g/ha: 70 g ai/ha; for pest or weed control at 140 g/ha: 140 g ai/ha
Outline: (§1)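 Plants grown in greenhouse (~15 h photoperiod, 23-29 °C day, 22-28 °C night) to first or second true leaf stage, then sprayed post-emergence at 187 L/ha with a high rate and 1/2×, 1/4×, 1/8× and 1/16× dilutions. Injury scored visually after 14 d, 0-100% versus untreated plants.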

[2] = system: Key Grass and Sedge Weeds as well as Grass Crops; assay: Post-emergent Test II herbicidal activity (Table 16); format: in vivo; details: post-emergence, 336 h, 14 days after application; for pest or weed control at 35 g/ha: 35 g ai/ha; for pest or weed control at 70 g/ha: 70 g ai/ha; for pest or weed control at 140 g/ha: 140 g ai/ha
Outline: as §1

[3] = Abutilon theophrasti, velvetleaf (Abutilon theophrasti), read-out: Visual Growth Reduction (%) 14 Days After Application, ABUTH
[4] = Amaranthus retroflexus, redroot pigweed (Amaranthus retroflexus), read-out: Visual Growth Reduction (%) 14 Days After Application, AMARE
[5] = Brassica napus, oilseed rape, canola (Brassica napus), read-out: Visual Growth Reduction (%) 14 Days After Application, BRSNN
[6] = Chenopodium album, lambsquarters (Chenopodium album), read-out: Visual Growth Reduction (%) 14 Days After Application, CHEAL
[7] = Euphorbia heterophylla, wild poinsettia (Euphorbia heterophylla), read-out: Visual Growth Reduction (%) 14 Days After Application, EPHHL
[8] = Helianthus annuus, sunflower (Helianthus annuus), read-out: Visual Growth Reduction (%) 14 Days After Application, HELAN
[9] = Cyperus esculentus, yellow nutsedge (Cyperus esculentus), read-out: Visual Growth Reduction (%) 14 Days After Application CYPES
[10] = Echinochloa crus-galli, barnyardgrass (Echinochloa crus-galli), read-out: Visual Growth Reduction (%) 14 Days After Application ECHCG
[11] = Oryza sativa, rice (Oryza sativa), read-out: Visual Growth Reduction (%) 14 Days After Application ORYSA
[12] = Setaria faberi, giant foxtail (Setaria faberi), read-out: Visual Growth Reduction (%) 14 Days After Application SETFA
[13] = Triticum aestivum, wheat, spring (Triticum aestivum), read-out: Visual Growth Reduction (%) 14 Days After Application TRZAS
[14] = Zea mays, maize, corn (Zea mays), read-out: Visual Growth Reduction (%) 14 Days After Application ZEAMX

| SMILES | pest or weed control at 35 g/ha [1, 3] [%] | pest or weed control at 70 g/ha [1, 3] [%] | pest or weed control at 140 g/ha [1, 3] [%] | pest or weed control at 35 g/ha [1, 5] [%] | pest or weed control at 70 g/ha [1, 5] [%] | pest or weed control at 140 g/ha [1, 5] [%] | pest or weed control at 35 g/ha [1, 6] [%] | pest or weed control at 70 g/ha [1, 6] [%] | pest or weed control at 140 g/ha [1, 6] [%] | pest or weed control at 35 g/ha [1, 7] [%] | pest or weed control at 70 g/ha [1, 7] [%] | pest or weed control at 140 g/ha [1, 7] [%] | pest or weed control at 35 g/ha [1, 8] [%] | pest or weed control at 70 g/ha [1, 8] [%] | pest or weed control at 140 g/ha [1, 8] [%] | pest or weed control at 35 g/ha [2, 9] [%] | pest or weed control at 70 g/ha [2, 9] [%] | pest or weed control at 140 g/ha [2, 9] [%] | pest or weed control at 35 g/ha [2, 10] [%] | pest or weed control at 70 g/ha [2, 10] [%] | further results |
| --- | --- | --- | --- | --- | --- | --- | --- | --- | --- | --- | --- | --- | --- | --- | --- | --- | --- | --- | --- | --- | --- |
| COC(=O)c1nc(-c2cccc3c2cnn3C)c(F)c(N)c1Cl [Compound 4.10] | 0 to 29 | 0 to 29 | 0 to 29 | 0 to 29 | 0 to 29 | 0 to 29 | 0 to 29 | 0 to 29 | 0 to 29 | 0 to 29 | 0 to 29 | 0 to 29 | 0 to 29 | 0 to 29 | 45 to 59 | 0 to 29 | 0 to 29 | 0 to 29 | 0 to 29 | 0 to 29 | pest or weed control at 35 g/ha [1, 4]: 0 to 29%; pest or weed control at 70 g/ha [1, 4]: 95 to 100%; pest or weed control at 140 g/ha [1, 4]: 95 to 100%; pest or weed control at 140 g/ha [2, 10]: 0 to 29%; pest or weed control at 35 g/ha [2, 11]: 0 to 29%; pest or weed control at 70 g/ha [2, 11]: 0 to 29%; pest or weed control at 140 g/ha [2, 11]: 0 to 29%; pest or weed control at 35 g/ha [2, 12]: 0 to 29%; pest or weed control at 70 g/ha [2, 12]: 0 to 29%; pest or weed control at 140 g/ha [2, 12]: 0 to 29%; pest or weed control at 35 g/ha [2, 13]: 0 to 29%; pest or weed control at 70 g/ha [2, 13]: 0 to 29%; pest or weed control at 140 g/ha [2, 13]: 0 to 29%; pest or weed control at 35 g/ha [2, 14]: 0 to 29%; pest or weed control at 70 g/ha [2, 14]: 0 to 29%; pest or weed control at 140 g/ha [2, 14]: 0 to 29%; melting point: 170 to 175 °C |
| COC(=O)c1nc(-c2cccc3cn[nH]c23)c(F)c(N)c1Cl [Compound 4.13] | 0 to 29 | 0 to 29 | 0 to 29 | 0 to 29 | 0 to 29 | 0 to 29 | 0 to 29 | 0 to 29 | 60 to 74 | 0 to 29 | 0 to 29 | 0 to 29 | 0 to 29 | 0 to 29 | 0 to 29 | 0 to 29 | 0 to 29 | 0 to 29 | 0 to 29 | 0 to 29 | pest or weed control at 140 g/ha [2, 10]: 0 to 29%; pest or weed control at 35 g/ha [2, 11]: 0 to 29%; pest or weed control at 70 g/ha [2, 11]: 0 to 29%; pest or weed control at 140 g/ha [2, 11]: 0 to 29%; pest or weed control at 35 g/ha [2, 12]: 0 to 29%; pest or weed control at 70 g/ha [2, 12]: 0 to 29%; pest or weed control at 140 g/ha [2, 12]: 0 to 29%; pest or weed control at 35 g/ha [2, 13]: 0 to 29%; pest or weed control at 70 g/ha [2, 13]: 0 to 29%; pest or weed control at 140 g/ha [2, 13]: 0 to 29%; pest or weed control at 35 g/ha [2, 14]: 0 to 29%; pest or weed control at 70 g/ha [2, 14]: 0 to 29%; pest or weed control at 140 g/ha [2, 14]: 0 to 29%; melting point: 207 to 210 °C |
| COC(=O)c1nc(-c2ccc3scnc3c2)c(F)c(N)c1Cl [Compound 6.01, Methyl 4-amino-6-(benzo[d]thiazol-5-yl)-3-chloro-5-fluoropicolinate] | 85 to 94 | 85 to 94 | 85 to 94 | 95 to 100 | 95 to 100 | 95 to 100 | 95 to 100 | 95 to 100 | 95 to 100 | 0 to 29 | 85 to 94 | 95 to 100 | 85 to 94 | 85 to 94 | 85 to 94 | 45 to 59 | 45 to 59 | 45 to 59 | 0 to 29 | 45 to 59 | pest or weed control at 35 g/ha [1, 4]: 85 to 94%; pest or weed control at 70 g/ha [1, 4]: 95 to 100%; pest or weed control at 140 g/ha [1, 4]: 95 to 100%; pest or weed control at 140 g/ha [2, 10]: 60 to 74%; pest or weed control at 35 g/ha [2, 11]: 0 to 29%; pest or weed control at 70 g/ha [2, 11]: 0 to 29%; pest or weed control at 140 g/ha [2, 11]: 0 to 29%; pest or weed control at 35 g/ha [2, 12]: 0 to 29%; pest or weed control at 70 g/ha [2, 12]: 0 to 29%; pest or weed control at 140 g/ha [2, 12]: 0 to 29%; pest or weed control at 35 g/ha [2, 13]: 0 to 29%; pest or weed control at 70 g/ha [2, 13]: 0 to 29%; pest or weed control at 140 g/ha [2, 13]: 0 to 29%; pest or weed control at 35 g/ha [2, 14]: 0 to 29%; pest or weed control at 70 g/ha [2, 14]: 0 to 29%; pest or weed control at 140 g/ha [2, 14]: 0 to 29%; melting point: 216 °C |
